This note sets out measurements from ChEMBL document CHEMBL2074491, “Transport of drugs across the hepatic sinusoidal membrane: sinusoidal drug influx and efflux in the liver” (Semin Liver Dis, 2000).

Molecules are shown by their SMILES.

For one data set, the system named is Rattus norvegicus. The data set is described as follows: TP_TRANSPORTER: Northern blot in vivo, kidney of SD rat. It is filed as functional, organism-based. The conditions noted are these: Sprague Dawley.
In data set [1] the target is T1, Solute carrier organic anion transporter family member 1A1 (Rattus norvegicus, UniProt P46720).
T1 sequence (P46720 whole entry): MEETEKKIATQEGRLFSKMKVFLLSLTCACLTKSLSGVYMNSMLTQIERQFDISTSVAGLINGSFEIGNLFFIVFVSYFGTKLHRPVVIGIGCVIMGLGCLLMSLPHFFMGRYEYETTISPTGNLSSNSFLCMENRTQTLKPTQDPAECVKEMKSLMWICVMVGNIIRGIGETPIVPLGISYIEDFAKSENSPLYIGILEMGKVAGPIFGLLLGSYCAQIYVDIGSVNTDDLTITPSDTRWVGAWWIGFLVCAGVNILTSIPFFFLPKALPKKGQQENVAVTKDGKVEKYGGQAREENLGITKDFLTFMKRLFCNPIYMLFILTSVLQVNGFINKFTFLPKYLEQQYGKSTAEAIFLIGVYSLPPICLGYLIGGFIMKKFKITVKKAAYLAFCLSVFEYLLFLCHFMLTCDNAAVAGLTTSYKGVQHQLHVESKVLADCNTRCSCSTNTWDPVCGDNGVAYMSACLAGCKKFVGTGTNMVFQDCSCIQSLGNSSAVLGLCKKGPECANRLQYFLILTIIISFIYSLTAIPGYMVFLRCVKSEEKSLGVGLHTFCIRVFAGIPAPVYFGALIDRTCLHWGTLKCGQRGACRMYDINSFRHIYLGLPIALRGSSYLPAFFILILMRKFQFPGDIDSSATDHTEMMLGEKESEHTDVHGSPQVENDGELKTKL
The data set is described as follows: TP_TRANSPORTER: transport activity. It counts as functional.

On to `C[C@]12CC[C@@H]3c4ccc(O)cc4CC[C@H]3[C@@H]1CC[C@@H]2O`, for which the Activity result in the data set on Rattus norvegicus was “is not a substrate [-]”.

As to `CCCCC[C@H](O)/C=C/[C@@H]1[C@@H](C/C=C\CCCC(=O)O)[C@@H](O)C[C@H]1O` [DINOPROST], the Activity result in data set [1] is “is not a substrate [-]”.
